Experimental data as given in patent US20230390228A1, “TREATMENT METHODS USING GHB” (Jazz Pharmaceuticals Ireland Limited, priority 2020, published 2023).

How the values were obtained:
[1] = test system: patients with fibromyalgia; assay: Randomized, double-blind, placebo-controlled fibromyalgia study (Example 1), analysed by baseline slow wave sleep (Example 2); assay type: in vivo, human; conditions: for response to oxybate (dose dependence) / change from baseline in Fibromyalgia Impact Questionnaire (FIQ) / change from baseline in pain visual analog scale (PVAS): FIG. 1; for change from baseline in Fibromyalgia Impact Questionnaire (FIQ) / change from baseline in pain visual analog scale (PVAS): Xyrem 4.5 g or 6 g/night vs placebo, 8 weeks
Source text: This study was a randomized, double-blind, placebo-controlled, parallel group study in subjects diagnosed with fibromyalgia.
The ACR criteria included: presence of widespread pain for more than 3 months in all 4 quadrants of the body as well as along the spine and the elicitation of pain at 11 or more out of 18 anatomically defined tender points upon palpation with a force of 4 kg.
Subjects underwent screening assessments. Subjects who met the eligibility criteria underwent a drug withdrawal and washout period during which time pain medications and any treatment for fibromyalgia were gradually withdrawn. At the end of the 2-week baseline assessment period, subjects who continued to meet inclusion/exclusion criteria and who reported an average pain score above 4 (on a visual analog scale [VAS] of 0 to 10) during the last week of the baseline period were randomized to 1 of 3 treatment groups: Xyrem 4.5 g/night, Xyrem 6 g/night, or placebo (half of the subjects randomized to placebo received placebo matching 4.5 g and the other half received placebo matching 6 g).
Test Product, Dose, Mode of Administration, and Duration of Treatment: • Sodium oxybate 4.5 g, oral solution (9 mL) taken in 2 equally divided doses (4.5 mL added to 2 oz water) each night for 8 weeks. • Sodium oxybate 6 g, oral solution (12 mL) taken in 2 equally divided doses (6 mL added to 2 oz of water) each night for 8 weeks.
Reference Therapy, Dose and Mode of Administration: • Placebo (sodium citrate solution) 4.5 g, oral solution (9 mL) matching volume of Xyrem 4.5 g, taken in 2 equally divided doses (4.5 mL added to 2 oz water) each night. • Placebo (sodium citrate solution) 6 g, oral solution (12 mL) matching volume of Xyrem 6 g, taken in 2 equally divided doses (6 mL added to 2 oz water) each night.
The primary efficacy parameter was a binary composite parameter for the treatment of fibromyalgia syndrome. The proportion of subjects in each treatment group that met all 3 of the following response criteria was compared to assess the efficacy of Xyrem in response to fibromyalgia syndrome. • Pain Severity: as assessed by pain VAS data recorded 3 time a day by the subject in an electronic diary (eDiary). For pain VAS, a response was defined as a reduction in average pain of 20% or greater from baseline to Week 8. • Functionality (Fibromyalgia Impact Questionnaire [FIQ]): Change from baseline to a study visit was assessed. A response was defined as a reduction of 20% or greater in FIQ total score from baseline to Week 8. • Patient Global Impression of Change (PGIc): The subject's perception of the overall improvement in their fibromyalgia symptoms was assessed by means of the PGIc questionnaire completed at the end of study. A response to treatment was defined as a response of “Very much better” or “Much better” on the PGIc.
Severity of Pain: the mean change from baseline to a study visit in pain severity (VAS pain). The proportion of responders for pain, defined as the proportion of subjects who had at least 20% reduction in pain severity from baseline to a study visit.
Fibromyalgia Impact Questionnaire: The mean change from baseline to a study visit in FIQ total score and subscale scores. The proportion of FIQ responders, defined as the proportion of subjects who had at least a 20% reduction in FIQ total score from baseline to a study visit.
Subjective Assessments of Sleep and Fatigue: • Daytime Sleepiness: the mean change from baseline to a study visit in the Epworth Sleepiness Scale (ESS). • Sleep Patterns: the mean change from baseline to a study visit in the Jenkins Scale (JS). • Fatigue: the mean change from baseline to a study visit in the fatigue VAS score. • Functional Outcomes of Sleep Questionnaire (FOSQ): the mean changes from baseline to a study visit in FOSQ total score and subscale scores. […]

brain = conditions: in vivo; cited from earlier work
[2] = target: GABA-ketoglutarate transaminase (Homo sapiens, UniProt P80404); conditions: cited from earlier work
narcolepsy = conditions: in vivo; cited from earlier work
[3] = test system: narcolepsy patients with cataplexy; conditions: cited from earlier work
[4] = patients with less than about 1% slow wave sleep at baseline or screening
[5] = patients with ≥20% slow wave sleep prior to treatment

Sequence of GABA-ketoglutarate transaminase (P80404 29-500): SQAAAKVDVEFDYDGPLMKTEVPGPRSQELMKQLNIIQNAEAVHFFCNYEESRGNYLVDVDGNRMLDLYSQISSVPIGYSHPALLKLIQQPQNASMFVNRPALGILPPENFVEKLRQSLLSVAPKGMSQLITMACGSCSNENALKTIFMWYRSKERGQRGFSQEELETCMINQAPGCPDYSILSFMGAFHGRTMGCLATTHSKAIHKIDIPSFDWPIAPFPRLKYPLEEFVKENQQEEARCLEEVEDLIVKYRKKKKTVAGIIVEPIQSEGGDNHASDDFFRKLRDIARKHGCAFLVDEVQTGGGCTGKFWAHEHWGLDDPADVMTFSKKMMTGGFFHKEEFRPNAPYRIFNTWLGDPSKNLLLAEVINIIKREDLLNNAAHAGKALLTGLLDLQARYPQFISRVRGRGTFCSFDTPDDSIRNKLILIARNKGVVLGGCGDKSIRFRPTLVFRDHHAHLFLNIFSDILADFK

With `O=C(O)CCCO` [oxybate, Gamma-hydroxybutyrate] as the molecule, how does the “oxybate response (FIQ, Pain VAS, Fatigue VAS, TPC)” value ([1]; low baseline slow wave sleep (quartile 1), FIG. 3A-3D) read?
The value was “improved oxybate response”.

And the “response to oxybate (dose dependence)” value [1, 4]?
Its value is “dose-dependent response”.

And the “change from baseline in Fibromyalgia Impact Questionnaire (FIQ)” value [1, 4]?
The value was “significant improvements”.

What about the “change from baseline in pain visual analog scale (PVAS)” value [1, 4] of the same molecule?
The value was “significant improvements”.

What about the “response to oxybate (dose dependence)” value [1, 5] of the same molecule?
The value was “did not exhibit a dose-dependent response”.

And the “change in FIQ from baseline” value ([1]; slow wave sleep quartile 1 (<13.5 min stage 3/4 sleep at baseline), 4.5 g and 6.0 g Xyrem vs placebo, FIG. 3A)?
The value was “significant improvements”.

And the “change in Fatigue VAS from baseline” value ([1]; slow wave sleep quartile 1 (<13.5 min stage 3/4 sleep at baseline), 4.5 g and 6.0 g Xyrem vs placebo, FIG. 3C)?
Its value is “significant improvements”.

And the “change in Tender Points Count (TPC) from baseline” value ([1]; slow wave sleep quartile 1 (<13.5 min stage 3/4 sleep at baseline), 4.5 g and 6.0 g Xyrem vs placebo, FIG. 3D)?
Its value is “significant improvements”.

And the brain acetylcholine (brain)?
Its brain acetylcholine is “increases”.

And the brain dopamine (brain)?
The brain dopamine was “increases”.

And the “glucose utilization in the brain” value (brain)?
The value was “depression”.

What about the “inhibition of GABA-ketoglutarate transaminase” value [2] of the same molecule?
The value was “inhibition”.

What about the REM latency (narcolepsy) of the same molecule?
Its REM latency is “decreases”.

What about the REM sleep (narcolepsy) of the same molecule?
Its REM sleep is “increases”.

What about the “signs and symptoms of narcolepsy (daytime sleepiness, cataplexy, sleep paralysis, hypnagogic hallucinations)” value (narcolepsy) of the same molecule?
Its value is “substantially reduces”.

What about the sleep apnea (narcolepsy) of the same molecule?
The sleep apnea was “reduces”.

And the total sleep time (narcolepsy)?
The total sleep time was “increases”.

With `O=C(O)CCCO` [sodium oxybate] as the molecule, how does the “change from baseline in Fibromyalgia Impact Questionnaire (FIQ)” value [1, 5] read?
The value was “did not differ significantly”.

What about the “change from baseline in pain visual analog scale (PVAS)” value [1, 5] of the same molecule?
The value was “did not differ significantly”.

And the “consolidation of REM sleep” value [3]?
Its value is “increased”.

And the “duration of slow wave sleep” value [3]?
The value was “increased”.

And the “number of sleep arousals” value [3]?
The value was “decreased”.
